Laboratory results from patent publication US20120035320A1, “POLYACRIDINE NUCLEIC ACID DELIVERY PEPTIDE COMPLEXES” (University of Iowa Research Foundation, priority 2010, published 2012).
“And” between values parts separate entries of the source, which are not always exact repeats. Identical values can stand only once. Like-named read-outs stand apart in the source and are kept apart here. No end group written: not given here. Acr = acridine on the lysine ε-amine

Columns and labels:
[1] = test system: DC-SIGN (+) and (−) CHO cells; assay: Cy5-DNA glycopeptide polyplex uptake by FACS; format: cell-based, human; conditions: 24 hr 37° C.
Description: pGL3 plasmid (5 μg) was labeled with Label IT according to the manufacturer's instructions to prepare Cy5-DNA. The Man 9 glycopeptide (0.5 nmol) was combined with 1 μg Cy5-DNA in 60 μl of water and incubated for 30 min to form a polyplex. DC-SIGN (+) and (−) CHO cells (1×10^6) (Granelli-Pipemo, A., Pritsker, A., Pack, M., Shimeliovich, I., Arrighi, J. F., Park, C. G., Trumpfheller, C., Piguet, V., Moran, T. M., and Steinman, R. M. (2005) Dendritic Cell Specific Intercellular Adhesion Molecule 3-Grabbing Nonintegrin/CD209 Is Abundant on Macrophages in the Normal Human Lymph Node and Is Not Required for Dendritic Cell Stimulation of the Mixed Leukocyte Reaction. J Immunology 7, 4260-4273) were each plated in triplicate in 35 mm wells and grown in DMEM supplemented with 7% FBS and 1% nonessential amino acids for 24 hrs. CHO (+) and (−) cells were transfected for 24 hrs with 1 μg of Cy5-DNA polyplex. The CHO cells were lifted by treatment with 5 ml of 1 mM EDTA in PBS and concentrated by centrifugation by 2,000×g, before diluting to a final volume of 1 ml in PBS. The transfected CHO (+) and (−) cells were analyzed by FACS on a Becton Dickson LSRII with excitation 488 nm and emission 575 nm, and compared to untransfected CHO cells.

[2] = test system: pGL3; assay: thiazole orange displacement assay of Man 9 glycopeptide; format: binding; conditions: pGL3 1 μg, 40 nM thiazole orange
Description: A control sample of pGL3 (1 μg) was combined with 40 nM thiazole orange in a total volume of 500 μl of 5 mM Hepes buffer pH 7.4. The Man 9 glycopeptide (0.2, 0.3, 0.4, 1 and 2 nmol) or Cys-(Acr-Lys)4 peptide (SEQ ID NO: 23) was added to pGL3 (1 μg) samples containing thiazole orange, and incubated for 30 min, followed by measuring the fluorescence intensity at excitation 500 nm and emission 530 nm (Wadhwa, M. S., Collard, W. T., Adami, R. C., McKenzie, D. L., and Rice, K. G. (1997) Peptide-mediated gene delivery: influence of peptide structure on gene expression. Bioconjugate Chemistry 8, 81-8). The percent fluorescence intensity relative to control was plotted versus the stoichiometry of glycopeptide or peptide added to DNA to determine the equivalence point.

[3] = test system: pGL3; assay: Man 9 glycopeptide DNA band shift assay; format: binding; conditions: agarose gel
Description: pGL3 (1 μg) was combined with 0.05, 0.2, 0.5, and 1 nmol of Man 9 glycopeptide. Each sample was incubated for 30 min before loading onto an agarose gel, that was electrophoresed at 80 V for 60 min (Adami, R. C., Collard, W. T., Gupta, S. A., Kwok, K. Y., Bonadio, J., and Rice, K. G. (1998) Stability of Peptide-Condensed Plasmid DNA Formulations. Journal of Pharmaceutical Sciences 87, 678-683). The gel was stained with 0.1 mg per ml of ethidium bromide at 4° C. for 24 hrs, then photographed while illuminating on a transilluminator.

[4] = test system: DNA; assay: DNA band shift and thiazole orange displacement assays of cysteine-flanked acridinylated peptides; format: binding
Description: CKacrKKacrC (SEQ ID NO: 103), CKacrRKacrC (SEQ ID NO: 104), CKacrLKacrC (SEQ ID NO: 105), and CKacrFKacrC (SEQ ID NO: 106) (where Kacr is a lysine modified with acridine at the ε-amine) (FIG. 33, Formula VII) were synthesized by SPPS and purified while monitoring the absorbance of acridine at 409 nm. Monomers were evaluated for DNA affinity by DNA band shift and thiazole orange displacement assays. DNA complexes with monomers were also evaluated for particle size and ζ-potential. […] Buffered incubations of monomer at pH 8.0 were used to encourage polymerization of peptides and poly-CKacrKKacrC (SEQ ID NO: 103) and poly-CKacrRKacrC (SEQ ID NO: 104) have been isolated.

[5] = test system: Erythrocytes; assay: RBC hemolysis assay; format: cell-based, mice
Description: Whole blood was obtained from male ICR mice by heart puncture with heparinized 22 G needles and collected in conical tubes containing 10 ml of 0.15 M PBS (pH 7.4) prewarmed to 37° C. Erythrocytes were immediately separated from plasma by centrifugation at 2000 rpm for 2 min, washed three times with 10 ml of PBS, and then diluted to 1.5×10^8 cells/ml. Peptides were prepared at 15 μM and serially diluted to 10-0.01 μM, after which 100 μl was pipetted in triplicate into a MultiScreenHTS BV 96 well plate. Erythrocytes (50 μl, 7.5×10^6 cells) were added to the peptides and incubated at 37° C. for 1 h followed by filtration on a Multiscreen vacuum manifold (Millipore Corporation, Billerica, Mass.). The filtrate was measured for Abs410nm on a Biotech plate reader (Biotech Instruments Incorporated., Winooski, Vt.) and compared to the 100% hemolysis caused by replacing PBS with water. Peptide DNA polyplexes (1.5 nmols and 7.5 μg pGL3) were also assayed for hemolysis as described above.

[6] = QELS particle size and zeta potential of polyacridine-melittin polyplexes; format: physicochemical; conditions: mean particle size of peptide-DNA polyplex, 0.5 nmol of peptide per μg of DNA
Description: Particle size and zeta potential were determined by preparing 2 ml of polyplex in 5 mM Hepes pH 7.5 at a DNA concentration of 30 μg/ml with 15 nmols/ml of peptide (0.5 nmol of peptide per μg of DNA). Particle size was measured by quasi-elastic light scattering (QELS) at a scatter angle of 90° on a Brookhaven ZetaPlus particle sizer (Brookhaven Instruments Corporation, NY). The zeta potential was determined as the mean of ten measurements immediately following acquisition of the particle size.

[7] = test system: HepG2, 3T3, and CHO cells; assay: in vitro gene transfer (luciferase) in three cell lines; format: cell-based; conditions: all three cell lines; 0.5 nmol per μg of pGL3
Description: HepG2 cells (5×10^5) were plated on 6×35 mm wells and grown to approximately 50% confluency. Transfections were performed in MEM supplemented with 2% FBS, sodium pyruvate (1 mM), and penicillin and streptomycin (100 U and 100 μg/mL). Polyplexes were prepared at a DNA concentration of 30 μg/ml and a stoichiometry of 0.5 nmol peptide per μg of DNA in Hepes buffered mannitol (HBM). Polyplexes (10 μg of DNA in 0.3 ml of HBM) were added drop wise to wells in triplicate. After 24 hrs, the cells were washed twice with 2 ml of ice-cold phosphate-buffered saline (Ca^2+- and Mg^2+-free) and then treated with 0.5 ml of lysis buffer (25 mM Tris Chloride, pH 7.8, 1 mM EDTA, 8 mM magnesium chloride, and 1% Triton X-100) for 10 min at 4° C. Cell lysates were scraped, transferred to 1.5 mL microcentrifuge tubes, and centrifuged for 10 min at 13,000 g at 4° C. to pellet cell debris. Lysis buffer (300 μL), sodium-ATP (4.3 μL of a 165 mM solution at pH 7, 4° C.) were combined in a test tube, mixed briefly, and immediately placed in the luminometer. Luciferase relative light units were measured by a Lumat LB 9501 (Berthold Systems, Germany) with 10 s integration after automatic injection of 100 μL of 0.5 mM D-luciferin. […] Protein concentrations were measured by a BCA assay using bovine serum albumin as a standard. […]

[8] = biological target: human DC-SIGN (Dendritic Cell-Specific Intracellular adhesion molecule-3 Grabbing Non-integrin) receptor, stably transfected in CHO cells (human) (UniProt Q9NNX6); assay: cell-based or functional assay
[9] = biological target: human DC-SIGN (Dendritic Cell-Specific Intracellular adhesion molecule-3 Grabbing Non-integrin) receptor, stably transfected in CHO cells (human) (UniProt Q9NNX6); assay: FACS of DC-SIGN CHO (+) and (-) cells after 24 hr with Cy5-DNA glycopeptide polyplex
[10] = biological target: human DC-SIGN (Dendritic Cell-Specific Intracellular adhesion molecule-3 Grabbing Non-integrin) receptor, stably transfected in CHO cells (human) (UniProt Q9NNX6); assay: FACS of DC-SIGN CHO (+) and (-) cells after 24 hr at 37 C with Cy5-DNA glycopeptide polyplex

Sequence of UniProt Q9NNX6 (Q9NNX6 whole entry): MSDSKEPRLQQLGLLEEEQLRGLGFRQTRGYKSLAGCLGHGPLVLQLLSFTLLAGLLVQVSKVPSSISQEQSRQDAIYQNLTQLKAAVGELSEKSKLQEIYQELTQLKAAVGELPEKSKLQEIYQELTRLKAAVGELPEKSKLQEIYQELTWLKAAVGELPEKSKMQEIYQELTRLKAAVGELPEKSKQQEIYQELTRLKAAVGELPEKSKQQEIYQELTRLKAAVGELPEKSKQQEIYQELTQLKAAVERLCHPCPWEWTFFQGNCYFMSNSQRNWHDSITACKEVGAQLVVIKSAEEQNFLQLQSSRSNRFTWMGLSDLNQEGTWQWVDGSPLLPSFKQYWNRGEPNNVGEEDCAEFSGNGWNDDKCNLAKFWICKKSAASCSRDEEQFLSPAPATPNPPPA

In the case of “Man 9 glycopeptide: high mannose N-glycan Man 9 Mal (Tyr, propionate maleimide) conjugated to Cys-(Acr-Lys)4”, the “cell uptake (fluorescence intensity), CHO (+) over CHO (−) cells” value [1] is reported as 10-50 fold and ~10 fold, the “thiazole orange displacement, asymptote / equivalence point for polyplex formation” value [2] is reported as 0.4 nmol per μg of DNA and the “stoichiometry at which the band shift was complete” value [3] is reported as ≥ 0.4 nmol of glycopeptide per μg of DNA.
In the case of “CKacrRKacrC: cysteine-flanked acridinylated peptide, SEQ ID NO: 104 (CK(Acr)RK(Acr)C; cysteine pairing not given here)”, the “affinity for DNA” value [4] is reported as “higher affinity for DNA”.
For CC[C@H](C)[C@H](NC(=O)CNC(=O)[C@H](CCCCN)NC(=O)[C@H](CCCCN)NC(=O)[C@H](Cc1c[nH]c2ccccc12)NC(=O)[C@@H](N)CSSC[C@H](NC(=O)[C@H](CCCNC(=N)N)NC(=O)[C@H](CCCCNC(C)=O)NC(=O)[C@H](CCCNC(=N)N)NC(=O)[C@H](CCCCNC(C)=O)NC(=O)[C@H](CCCNC(=N)N)NC(=O)[C@H](CCCCNC(C)=O)NC(=O)[C@H](CCCNC(=N)N)NC(=O)[C@H](CCCCNC(C)=O)NC(=O)[C@@H](N)Cc1c[nH]c2ccccc12)C(=O)O)C(=O)NCC(=O)N[C@@H](C)C(=O)N[C@H](C(=O)N[C@@H](CC(C)C)C(=O)N[C@@H](CCCCN)C(=O)N[C@H](C(=O)N[C@@H](CC(C)C)C(=O)N[C@H](C(=O)N[C@H](C(=O)NCC(=O)N[C@@H](CC(C)C)C(=O)N1CCC[C@H]1C(=O)N[C@@H](C)C(=O)N[C@@H](CC(C)C)C(=O)N[C@H](C(=O)N[C@@H](CO)C(=O)N[C@@H](CC(C)C)C(=O)N[C@H](C(=O)N[C@@H](CCCCN)C(=O)N[C@@H](CCCNC(=N)N)C(=O)N[C@@H](CCCCN)C(=O)N[C@@H](CCCNC(=N)N)C(=O)N[C@@H](CCC(N)=O)C(=O)N[C@@H](CCC(N)=O)C(=O)O)[C@@H](C)CC)[C@@H](C)CC)[C@@H](C)O)[C@@H](C)O)C(C)C)C(C)C [poly(Lys(Ac)-Arg)4-SS-melittin], the EC50 ([5]; RBC hemolysis at pH 5.0, second value of the cell (pH 7.4:5.0), read-out: HL50 (μM) pH 5.0) was 7.7 µM, the EC50 ([5]; RBC hemolysis at pH 7.4, first value of the cell (pH 7.4:5.0), read-out: HL50 (μM) pH 7.4) was 5.6 µM and the “Particle Size (nm)” value [6] was 177 nm. For the same compound, the “gene transfer, fold less active than poly(Acr-Arg)4-SS-melittin” value [7] was 100-1000 fold.
For “Man 9 glycopeptide (Man9GlcNAc2-Asn-Tyr-propionate maleimide conjugated to Cys-(Acr-Lys)4)”, the in vitro gene transfer (luciferase expression) in CHO (+) versus CHO (-) cells [8] was 100 fold, the fold fluorescence intensity, CHO (+) over CHO (-) cells [9] was 10 fold and the fold fluorescence intensity (cell uptake), CHO (+) over CHO (-) cells [10] was 10 to 50 fold.
In the case of “poly-CKacrKKacrC: disulfide polymer of CKacrKKacrC formed by buffered incubation at pH 8.0 (CK(Acr)KK(Acr)C; also: disulfide polymer formed at pH 8.0)”, the “affinity for DNA” value [4] is reported as “greater affinity of the polymer for DNA than the monomer”.
In the case of “CKacrKKacrC: cysteine-flanked acridinylated peptide, Kacr = lysine modified with acridine at the ε-amine; SEQ ID NO: 103 (CK(Acr)KK(Acr)C; cysteine pairing not given here)”, the “affinity for DNA” value [4] is reported as “higher affinity for DNA”.
